Laboratory results reported in patent US20260083864A1, “CONTRAST AGENTS FOR USE IN DIAGNOSTIC COMPUTED TOMOGRAPHY IMAGING” (Bayer Aktiengesellschaft, priority 2022, published 2026).

How the values were obtained:
[1] = Complex stability (transmetallation) against Zn2+ in phosphate buffer; conditions: 72 hours, 2.5 mM Zn^2+, 26 mM phosphate buffer, 37° C., pH 7.4
Text: If test compounds are instable under these conditions, transmetallation during this test would lead to the formation of the Zn^2+ complex of the test item, while Gd^3+ is released and precipitated as highly insoluble GdPO4.

[2] = Relaxivity measurements at 1.41 T in water; type: physicochemical; conditions: 37° C., normalized to Gd
Procedure, shortened: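 T1 by inversion recovery and T2 by CPMG at 1.41 T (60 MHz), 37° C, relaxation delay ≥5×T1. Three Gd concentrations between 0.05 and 2 mM; relaxivities derived from measured relaxation rates in water.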

[3] = system: freshly isolated rat hepatocytes; assay: Uptake into freshly isolated rat hepatocytes; conditions: for Uptake rat hepatocytes: 100 μmol Gd/L, 10 min, 37° C., relative to RC1 (Gd-EOB-DTPA); for Inhibition Rifampicine: rat hepatocyte uptake, test item and Rifampicine 1:1, each 100 μM
Experimental: After incubation the adherent hepatocytes were washed once with 37° C. Hepes carbonate transport buffer (500 μL/well). The test items and RC1 were prepared from stock solutions (180 to 500 mM concentration) in Hepes carbonate transport buffer at pH 7.4 to reach a final concentration of 100 μmol Gd/L. The specific uptake of the test item or RC1 into rat hepatocytes via OATP1B1 and OATP1B3 was challenged using a known OATP1B1/1B3 inhibitor (Rifampicine, Fa. Sigma R3501, test item and inhibitor 1:1 each 100 μM final concentration). The prepared rat hepatocyte plates were incubated with test solutions (500 μL/well) at 37° C. for 10 min using a thermoshaker (Fa. Grant Bio, PHMP). Triplicates were performed for each test item. After incubating the cells were washed once with cold PBS buffer (Fa. Gibco, Dulbeccos PBS (+)). After washing the intact hepatocytes were lysed by addition of 500 μL cold 0.01% Triton-X 100 in Millipore water for 1 h. […] As a reference standard RC1 is used in the same well plate. The hepatocyte uptake of the test compound is calculated relative to RC1 (resulting in the unit % of RC1).

[4] = Relaxivity measurements at 1.41 T in human plasma; type: physicochemical; conditions: 37° C., normalized to Gd
Procedure, shortened: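 T1 determined by inversion recovery (8 inversion-time steps) and T2 by CPMG sequence, both with relaxation delay ≥5×T1. Each relaxivity used three Gd concentrations between 0.05 and 2 mM. Relaxivities were derived from relaxation rates measured in water and plasma.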

[5] = Partition coefficient (log P butanol/buffer); type: physicochemical; conditions: 1-butanol / 50 mM Tris-HCl, pH 7.4, room temperature
[6] = Water solubility in aqueous buffer; conditions: aqueous buffer 10 mM Tris-HCl, pH 7.4, 20° C.
Experimental: The solid compounds were added stepwise to the buffer solution. More substance is added once all the suspended material is dissolved until an equilibrium between undissolved and dissolved substance is reached. The suspension was mixed using a shaker (Heidolph Reax 2000) and treated 5 min in an ultrasound bath (Bandelin, Sonorex Super RK255H).

[7] = biological target: T1, OATP1B3 (Homo sapiens, UniProt Q9NPD5); assay: Uptake into stable transfected OATP1B3 HEK 293 cells; type: cell-based; conditions: for Uptake into OATP1B3-HEK 293 cells: 40 min incubation, relative to RC1 (Gd-EOB-DTPA); for Inhibition Rifampicine: uptake into OATP1B3-HEK 293 cells
T1 sequence (Q9NPD5 1-702): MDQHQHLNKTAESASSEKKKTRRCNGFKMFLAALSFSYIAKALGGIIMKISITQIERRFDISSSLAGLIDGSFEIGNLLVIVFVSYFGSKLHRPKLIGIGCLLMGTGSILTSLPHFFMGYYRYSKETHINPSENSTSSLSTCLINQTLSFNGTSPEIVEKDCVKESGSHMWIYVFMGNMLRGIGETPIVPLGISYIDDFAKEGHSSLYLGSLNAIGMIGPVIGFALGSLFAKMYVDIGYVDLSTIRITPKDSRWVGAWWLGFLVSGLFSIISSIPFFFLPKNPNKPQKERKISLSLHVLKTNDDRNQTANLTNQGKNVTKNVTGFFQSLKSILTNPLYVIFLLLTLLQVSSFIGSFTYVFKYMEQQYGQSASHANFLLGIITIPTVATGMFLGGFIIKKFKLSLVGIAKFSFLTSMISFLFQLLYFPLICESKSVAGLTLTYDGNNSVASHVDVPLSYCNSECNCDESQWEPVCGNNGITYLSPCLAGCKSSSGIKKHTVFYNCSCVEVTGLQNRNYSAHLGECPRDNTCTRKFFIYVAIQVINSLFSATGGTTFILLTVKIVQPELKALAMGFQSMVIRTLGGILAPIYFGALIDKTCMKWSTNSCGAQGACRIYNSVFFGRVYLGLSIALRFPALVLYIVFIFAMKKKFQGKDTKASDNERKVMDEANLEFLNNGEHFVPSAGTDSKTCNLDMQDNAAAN
Procedure, shortened: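 HEK 293 cells stably transfected with human OATP1B3 were incubated for 40 min with test items at 100 μM final in transport buffer, in triplicate, then washed with cold PBS. Gadoxetate (Gd-EOB-DTPA) served as the reference standard on the same plate.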

[8] = biological target: T2, OATP1B1 (Homo sapiens, UniProt Q9Y6L6); assay: Uptake into stable transfected OATP1B1 HEK 293 cells; type: cell-based; conditions: for Uptake into OATP1B1-HEK 293 cells: 40 min incubation, relative to RC1 (Gd-EOB-DTPA); for Inhibition Rifampicine: uptake into OATP1B1-HEK 293 cells
T2 sequence (Q9Y6L6 1-691): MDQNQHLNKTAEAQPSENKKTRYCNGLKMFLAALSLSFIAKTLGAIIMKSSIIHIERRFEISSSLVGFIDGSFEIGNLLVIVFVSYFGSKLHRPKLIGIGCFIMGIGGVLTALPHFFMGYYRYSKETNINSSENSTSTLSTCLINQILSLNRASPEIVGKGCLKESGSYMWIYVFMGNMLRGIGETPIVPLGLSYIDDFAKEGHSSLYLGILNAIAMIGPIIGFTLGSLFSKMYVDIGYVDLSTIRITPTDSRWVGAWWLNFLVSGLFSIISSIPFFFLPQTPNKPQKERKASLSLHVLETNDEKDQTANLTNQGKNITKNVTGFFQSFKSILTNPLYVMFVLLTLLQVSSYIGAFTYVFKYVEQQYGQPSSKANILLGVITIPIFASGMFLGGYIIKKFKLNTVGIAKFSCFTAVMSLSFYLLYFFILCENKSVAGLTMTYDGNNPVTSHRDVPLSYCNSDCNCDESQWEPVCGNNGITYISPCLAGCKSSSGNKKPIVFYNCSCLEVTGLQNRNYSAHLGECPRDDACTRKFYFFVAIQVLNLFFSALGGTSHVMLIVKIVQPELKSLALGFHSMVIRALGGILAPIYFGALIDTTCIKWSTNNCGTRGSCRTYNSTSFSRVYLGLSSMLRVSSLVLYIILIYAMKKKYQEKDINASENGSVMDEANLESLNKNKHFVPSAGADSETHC
Procedure, shortened: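 Uptake measured in triplicate after a 40 min, unshaken exposure of OATP1B1-expressing HEK293 cells to 100 µM (final) compound in transport buffer. Cold PBS wash stopped uptake; Gd-EOB-DTPA served as reference standard within each plate.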

| Compound | Transmetallation stability [1] | r1 water [2] | Uptake rat hepatocytes [3] | Inhibition Rifampicine [3] | r1 human plasma [4] | Log P (partition coefficient butanol/buffer) [5] | Solubility [6] | Uptake into OATP1B3-HEK 293 cells [7] | Inhibition Rifampicine [7] | Uptake into OATP1B1-HEK 293 cells [8] | Inhibition Rifampicine [8] |
| --- | --- | --- | --- | --- | --- | --- | --- | --- | --- | --- | --- |
| CCOCCOCCOc1ccc(C[C@H](C(=O)O)N2CCN(CC(=O)[O-])CCN(CC(=O)[O-])CCN(CC(=O)[O-])CC2)cc1.[Gd+3] [Example 4, gadolinium 2,2′,2″-{10-[(1R)-1-carboxy-2-{4-[2-(2-ethoxyethoxy)ethoxy]phenyl}ethyl]-1,4,7,10-tetraazacyclododecane-1,4,7-triyl}triacetate] | 100% | 4.2 L/mmol/s | 72 % of RC1 | 98 % inhibition | 6.5 L/mmol/s | −1.61 | >75 mM | 58 % of RC1 | 98 % inhibition | 126 % of RC1 | 40 % inhibition |
| CCOCCOCCOc1ccc(CC(C(=O)O)N2CCN(CC(=O)[O-])CCN(CC(=O)[O-])CCN(CC(=O)[O-])CC2)cn1.[Gd+3] (centres unmarked) [Example 16, gadolinium 2,2′,2″-{10-[1-carboxy-2-{6-[2-(2-ethoxyethoxy)ethoxy]pyridin-3-yl}ethyl]-1,4,7,10-tetraazacyclododecane-1,4,7-triyl}triacetate] | 101% | 4.4 L/mmol/s | 16 % of RC1 | 92 % inhibition | 6.2 L/mmol/s | −1.81 | >416 mM | 25 % of RC1 | 94 % inhibition | 66 % of RC1 | 35 % inhibition |
| CCOCCOCCOc1ccc(CCCC(C(=O)O)N2CCN(CC(=O)[O-])CCN(CC(=O)[O-])CCN(CC(=O)[O-])CC2)cc1.[Gd+3] (centres unmarked) [Example 25, gadolinium 2,2′,2″-{10-[1-carboxy-4-{4-[2-(2-ethoxyethoxy)ethoxy]phenyl}butyl]-1,4,7,10-tetraazacyclododecane-1,4,7-triyl}triacetate] | 103% | 4.6 L/mmol/s | 82 % of RC1 | 96 % inhibition | 7.5 L/mmol/s | −1.00 | 306 mM | 58 % of RC1 | 93 % inhibition | 30 % of RC1 | 75 % inhibition |
| CCOCCOCCOc1ccc(CCC[C@@H](C(=O)O)N2CCN(CC(=O)[O-])CCN(CC(=O)[O-])CCN(CC(=O)[O-])CC2)cc1.[Gd+3] [Example 26, gadolinium 2,2′,2″-{10-[(1S)-1-carboxy-4-{4-[2-(2-ethoxyethoxy)ethoxy]phenyl}butyl]-1,4,7,10-tetraazacyclododecane-1,4,7-triyl}triacetate] | 99% | 4.5 L/mmol/s | 77 % of RC1 | 97 % inhibition | 7.5 L/mmol/s | −1.01 | >62 mM | 64 % of RC1 | 93 % inhibition | 386 % of RC1 | 73 % inhibition |
| CCOc1ccc(CCCC(C(=O)O)N2CCN(CC(=O)[O-])CCN(CC(=O)[O-])CCN(CC(=O)[O-])CC2)cc1.[Gd+3] (centres unmarked) [Example 28, gadolinium 2,2′,2″-{10-[1-carboxy-4-(4-ethoxyphenyl)butyl]-1,4,7,10-tetraazacyclododecane-1,4,7-triyl}triacetate] | 101% | 4.4 L/mmol/s | 72 % of RC1 | 98 % inhibition | 10.6 L/mmol/s | −0.71 | >194 mM | 36 % of RC1 | 97 % inhibition | 294 % of RC1 | 94 % inhibition |
| CCCCOc1ccc(CCC[C@@H](C(=O)O)N2CCN(CC(=O)[O-])CCN(CC(=O)[O-])CCN(CC(=O)[O-])CC2)cc1.[Gd+3] [Example 31, gadolinium 2,2′,2″-{10-[(1S)-4-(4-butoxyphenyl)-1-carboxybutyl]-1,4,7,10-tetraazacyclododecane-1,4,7-triyl}triacetate] | 102% | 4.4 L/mmol/s | 87 % of RC1 | 94 % inhibition | 15.8 L/mmol/s | 0.20 | >255 mM | 194 % of RC1 | 99 % inhibition | 1919 % of RC1 | 98 % inhibition |
| CCCCOc1cccc(CCC[C@@H](C(=O)O)N2CCN([C@@H](CO)C(=O)[O-])CCN([C@@H](CO)C(=O)[O-])CCN([C@@H](CO)C(=O)[O-])CC2)c1.[Gd+3] [Example 34, gadolinium (2S,2′S,2″S)-2,2′,2″-{10-[(1S)-4-(3-butoxyphenyl)-1-carboxybutyl]-1,4,7,10-tetraazacyclododecane-1,4,7-triyl}tris(3-hydroxypropanoate)] | 101% | 4.9 L/mmol/s | 98 % of RC1 | 90 % inhibition | 18.0 L/mmol/s | 0.12 | >236 mM | 140 % of RC1 | 98 % inhibition | 947 % of RC1 | 96 % inhibition |
